Reference: patent US11345702B1 (Myoforte Therapeutics, Inc., priority 2020, dated 2022)
Where “and” joins values, the source holds several entries; their conditions need not be identical. Equal values may be shown once.

Molecular target: 15-PGDH/HPGD (Homo sapiens (Human), UniProt P15428)
Test: hPGDH inhibitor screening biochemical assay
Conditions: read-out: hPGDH: Average IC50
Experimental: A hydroxyprostaglandin dehydrogenase inhibition screening biochemical assay can be performed to assess the synthesized inhibitors provided herein. Provided herein is an exemplary biochemical assay for hPGDH inhibitor screening.
The in vitro biochemical assay can be performed in white, 384 plates in total 20 μl reaction volume consisting of 10 nM of 15-PGDH/HPGD (R&D System #5660-DH), 15 μM Prostaglandin E2 (Sigma, Cat #P5640-10MG) and 0.25 mM (3-Nicotinamide adenine dinucleotide sodium salt (Sigma, Cat #N0632-5G) made in reaction buffer (50 mM Tris-HCl, pH 7.5, 0.01% Tween 20) at 10-point dose response curve for test/tool compounds. Briefly, 5 μl (4×) of compounds solution and 5 μl (final concentration, 10 nM) of enzyme solution is added to white 384 well plates and incubated for 10 mins at 37° C. 5 μl (4×) of Prostaglandin E2 and 5 μl (4×) of β-Nicotinamide adenine dinucleotide sodium salt is added to the wells and incubated for 10 mins at room temperature. Fluorescence is recorded at ex/em=340 nm/485 nm. The percentage (%) inhibition of enzyme activity was determined relative to positive control (1% DMSO) and IC50 was calculated using GraphPad prism software (four parameter-variable slope equation).

Sequence of 15-PGDH/HPGD (P15428 whole entry): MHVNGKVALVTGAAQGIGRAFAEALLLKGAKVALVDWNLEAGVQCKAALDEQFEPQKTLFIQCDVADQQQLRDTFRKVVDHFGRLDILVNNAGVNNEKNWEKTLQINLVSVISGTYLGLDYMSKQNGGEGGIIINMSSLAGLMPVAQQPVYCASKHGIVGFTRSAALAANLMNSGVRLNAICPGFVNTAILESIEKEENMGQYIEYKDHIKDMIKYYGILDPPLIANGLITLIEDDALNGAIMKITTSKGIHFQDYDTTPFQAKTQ

Structure (SMILES) | IC50
O=C(c1ccc2c(c1)ncn2-c1cccc(Cl)c1)N1CCC(O)C1 (stereo not shown) [MF-PGDH-050] | ≥ 1000 nM
O=C(c1cnc2c(c1)ncn2-c1cccc(OC(F)(F)F)c1)N1CCC(F)CC1 [MF-DH-226] | 100 to 1000 nM
O=C(c1cnc2c(ccn2-c2cncc(NS(=O)(=O)C3CC3)c2)c1)N1CCC(F)(F)CC1 [MF-DH-484, N-(5-(5-(4,4-difluoropiperidine-1-carbonyl)-1H-pyrrolo[2,3-b]pyridin-1-yl)pyridin-3-yl)cyclopropanesulfonamide] | < 100 nM
O=C(Nc1ccno1)c1ccc(-n2ccc3cc(C(=O)N4CCC(F)(F)CC4)cnc32)cn1 | < 100 nM
N#Cc1cc(-n2ccc3cc(C(=O)N4CCC(F)(F)CC4)cnc32)cnc1O [MF-DH-502] | < 100 nM
COc1ccc(-n2ccc3cc(C(=O)N4CCC(F)CC4)cnc32)cc1 [MF-DH-285] | < 100 nM
COc1ccc(-c2c[nH]c3cc(C(=O)N4CCC(F)CC4)cnc23)cc1 [MF-DH-204] | 100 to 1000 nM
NCc1cccc(-n2ccc3cc(C(=O)N4CCCCC4)cnc32)c1 [MF-DH-303] | 100 to 1000 nM
NC(=O)c1ccc(-n2ccc3cc(C(=O)N4CCC(F)CC4)cnc32)cn1 [MF-DH-355] | < 100 nM
CN(C)c1ccc(-n2ccc3cc(C(=O)N4CCCCC4)cnc32)cn1 [MF-DH-366] | < 100 nM
N#Cc1ccc(-n2ccc3cc(C(=O)N4CCC(F)CC4)ncc32)cc1 [MF-DH-463, 4-(5-(4-fluoropiperidine-1-carbonyl)-1H-pyrrolo[2,3-c]pyridin-1-yl)benzonitrile] | ≥ 1000 nM
N#Cc1ccc(-n2ccc3cc(C(=O)N4C[C@H](F)C[C@H](F)C4)cnc32)cc1 [MF-DH-417, 4-(5-((3R,5S)-3,5-difluoropiperidine-1-carbonyl)-1H-pyrrolo[2,3-b]pyridin-1-yl)benzonitrile] | 100 to 1000 nM and < 100 nM
CN(C)c1ccc(-n2ccc3cc(C(=O)N4CCCCC4)cnc32)cc1 [MF-DH-305] | < 100 nM
Cn1cc(-n2cc(Cl)c3cc(C(=O)N4CCC(F)CC4)cnc32)cn1 [MF-DH-140] | < 100 nM
O=C(c1ccc2c(c1)ncn2-c1cccc(Cl)c1)N1CC2CC2C1 (stereo not shown) [MF-PGDH-017] | 100 to 1000 nM
O=C(c1ccc2c(c1)nnn2-c1cccc(Cl)c1)N1CCCCC1 [MF-PGDH-011, (1-(3-chlorophenyl)-1H-benzo[d][1,2,3]triazol-5-yl)(piperidin-1-yl)methanone] | < 100 nM
N#Cc1ccc(-n2cnc3cc(C(=O)N4CC(Cl)C4)cnc32)cc1 [MF-DH-443] | < 100 nM
O=C(O)c1cncc(-n2ccc3cc(C(=O)N4CCC(F)(F)CC4)cnc32)c1 [MF-DH-425, 5-(5-(4,4-difluoropiperidine-1-carbonyl)-1H-pyrrolo[2,3-b]pyridin-1-yl)nicotinic acid] | < 100 nM
CNC(=O)c1ccc(-n2ccc3cc(C(=O)N4CCCCC4)cnc32)cc1 [MF-DH-368] | < 100 nM
COc1ccc(-n2ccc3cc(C(=O)N4CCC(F)CC4)cnc32)cn1 [MF-DH-157] | < 100 nM
COc1ccccc1-c1cn(C)c2cc(C(=O)N3CCC(F)CC3)cnc12 [MF-DH-200, (4-fluoropiperidin-1-yl)(3-(2-methoxyphenyl)-1-methyl-1H-pyrrolo[3,2-b]pyridin-6-yl)methanone] | ≥ 1000 nM
N#Cc1ccc(-n2c(CCC(N)=O)cc3cc(C(=O)N4CCC(F)(F)CC4)cnc32)cc1 [MF-DH-446, 3-(1-(4-cyanophenyl)-5-(4,4-difluoropiperidine-1-carbonyl)-1H-pyrrolo[2,3-b]pyridin-2-yl)propanamide] | 100 to 1000 nM
Cn1cc(-n2ccc3cc(C(=O)N4CCCCC4)cnc32)cn1 [MF-PGDH-076] | < 100 nM
Cc1cn(-c2cnccn2)c2ccc(C(=O)N3CCC(F)CC3)cc12 [MF-DH-180, (4-fluoropiperidin-1-yl)(3-methyl-1-(pyrazin-2-yl)-1H-indol-5-yl)methanone] | 100 to 1000 nM
O=C(c1cnc2c(ccn2-c2ccncn2)c1)N1CCCCC1 [MF-PGDH-069] | < 100 nM
CCNC(=O)c1ccc(-n2ccc3cc(C(=O)N4CCC(F)(F)CC4)cnc32)nc1 [MF-DH-477, 6-(5-(4,4-difluoropiperidine-1-carbonyl)-1H-pyrrolo[2,3-b]pyridin-1-yl)-N-ethylnicotinamide] | < 100 nM
COc1ccc(-n2c(C)nc3cc(C(=O)N4CCC(F)CC4)cnc32)cc1 [MF-DH-176] | 100 to 1000 nM

Results, then the compound that gave them:

IC50 | Structure (SMILES)
< 100 nM | O=C(c1cnc2c(ccn2-c2cncnc2)c1)N1CCCCC1 [MF-PGDH-070]
< 100 nM | O=C(c1ccc2c(c1)ncn2-c1ccc(O)c(Cl)c1)N1CCCCC1 [MF-PGDH-061, (1-(3-chloro-4-hydroxyphenyl)-1H-benzo[d]imidazol-5-yl)(piperidin-1-yl)methanone]
< 100 nM | O=C(NCCO)c1cccc(-n2ccc3cc(C(=O)N4CCC(F)(F)CC4)cnc32)c1 [MF-DH-468, 3-(5-(4,4-difluoropiperidine-1-carbonyl)-1H-pyrrolo[2,3-b]pyridin-1-yl)-N-(2-hydroxyethyl)benzamide]
100 to 1000 nM | CC(C)(O)CCC#Cc1nc2cc(C(=O)N3CCC(F)(F)CC3)cnc2n1-c1ccc(C#N)cc1 [MF-DH-544, 4-(6-(4,4-difluoropiperidine-1-carbonyl)-2-(5-hydroxy-5-methylhex-1-yn-1-yl)-3H-imidazo[4,5-b]pyridin-3-yl)benzonitrile]
< 100 nM | COc1ccc(-n2c(CCC(C)(C)O)cc3cc(C(=O)N4CCCCC4)cnc32)cc1 [MF-DH-330, (2-(3-hydroxy-3-methylbutyl)-1-(4-methoxyphenyl)-1H-pyrrolo[2,3-b]pyridin-5-yl)(piperidin-1-yl)methanone]
< 100 nM | O=C(c1cnc2c(ccn2-c2ccc(O)nc2)c1)N1CCC(F)CC1 [MF-DH-133]
100 to 1000 nM | O=C(c1cnc2c(ccn2-c2ccc(C3(C(=O)O)CC3)cc2)c1)N1CCC(F)(F)CC1 [MF-DH-427, 1-(4-(5-(4,4-difluoropiperidine-1-carbonyl)-1H-pyrrolo[2,3-b]pyridin-1-yl)phenyl)cyclopropane-1-carboxylic acid]
< 100 nM | NC[C@@H]1CN(c2cncc(-n3ccc4cc(C(=O)N5CCC(F)(F)CC5)cnc43)c2)C(=O)O1 [MF-DH-479]
< 100 nM | COc1cncc(-n2ccc3cc(C(=O)N4CCCCC4)cnc32)c1 [MF-DH-296]
< 100 nM | COc1ccc(-n2cc(Cl)c3cc(C(=O)N4CCC(F)CC4)cnc32)cc1 [MF-DH-191, (3-chloro-1-(4-methoxyphenyl)-1H-pyrrolo[2,3-b]pyridin-5-yl)(4-fluoropiperidin-1-yl)methanone]
< 100 nM | NS(=O)(=O)c1ccc(-n2ccc3cc(C(=O)N4CCC(F)(F)CC4)cnc32)cc1 [MF-DH-496]
≥ 1000 nM | O=C1CCN(C(=O)c2ccc3c(c2)ncn3-c2cccc(Cl)c2)C1 [MF-PGDH-090, 1-(1-(3-chlorophenyl)-1H-benzo[d]imidazole-5-carbonyl)pyrrolidin-3-one]
< 100 nM | O=C(c1ccc2c(c1)ncn2-c1cccc(Cl)c1)N1CCCCC1 [MF-PGDH-023]
< 100 nM | CC(C)(O)c1ccc(-n2ccc3cc(C(=O)N4CCCCC4)cnc32)cc1 [MF-DH-371]
< 100 nM | NC(=O)c1ccc(-n2ccc3cc(C(=O)N4CCC(F)CC4)cnc32)cc1 [MF-DH-343]
< 100 nM | O=C(c1cnc2c(c1)c(Cl)cn2-c1cncc(Cl)c1)N1CCCCC1 [MF-DH-274]

IC50 | Structure (SMILES)
< 100 nM | O=C(c1ccc2c(c1)c(Cl)cn2-c1cccc(Cl)c1)N1CCCCC1 [MF-PGDH-005]
100 to 1000 nM | COc1ccccc1NC(=O)c1ccc(C(=O)N2CCCCC2)cc1 [MF-PGDH-043, N-(2-methoxyphenyl)-4-(piperidine-1-carbonyl) benzamide]
< 100 nM | O=C(c1ccc(CSc2ccccc2Cl)cc1)N1CCCCC1 [MF-PGDH-039]
< 100 nM | O=C(c1cnc2c(ccn2-c2cscn2)c1)N1CCCCC1 [MF-PGDH-074]
< 100 nM | O=C(c1ccc(COc2ccccc2-c2cnc[nH]2)cc1)N1CCCCC1 [MF-PGDH-096]
< 100 nM | O=C(c1ccc(-n2ccc3cc(C(=O)N4CCC(F)(F)CC4)cnc32)cc1)N(CCO)CCO [MF-DH-451]
< 100 nM | N#Cc1ccc(-n2cnc3cc(C(=O)N4CCC(F)(F)CC4)cnc32)cc1 [MF-DH-442]
< 100 nM | O=C(c1ccc(COc2ccccc2Cl)cc1)N1CCCCC1 [MF-PGDH-037]
100 to 1000 nM | O=C(c1cnc2c(c1)ncn2-c1ccc(OC(F)F)cc1)N1CCC(F)CC1 [MF-DH-222]
< 100 nM | Cc1c(C(=O)N2CCC(F)CC2)cnc2c1ccn2-c1cnccn1 [MF-DH-150, (4-fluoropiperidin-1-yl)(4-methyl-1-(pyrazin-2-yl)-1H-pyrrolo[2,3-b]pyridin-5-yl)methanone]
< 100 nM | CN(C)c1ccc(-n2ccc3cc(C(=O)N4CCC(F)CC4)cnc32)cc1 [MF-DH-346]
≥ 1000 nM | O=C(c1ccc(COc2ccccc2Cl)cn1)N1CCC(F)CC1 [MF-DH-121, (5-((2-chlorophenoxy)methyl)pyridin-2-yl)(4-fluoropiperidin-1-yl)methanone]
< 100 nM | NC[C@@H]1CN(c2ccc(-n3ccc4cc(C(=O)N5CCC(F)(F)CC5)cnc43)cn2)C(=O)O1 [MF-DH-478]
≥ 1000 nM | COc1ccc(-n2c(CCNC(C)=O)nc3cc(C(=O)N4CCC(F)CC4)cnc32)cc1 [MF-DH-117]
100 to 1000 nM | O=C(NC1CC1)c1ccc2c(c1)ncn2-c1cccc(Cl)c1 [MF-PGDH-063]
